Values quoted from earlier work in patent US20080175925A1, “Method and composition for the treatment of herpes virus” (priority 2007, published 2008).

What was measured:
[1] = system: HSV-1; conditions: guinea pig model
[2] = system: HSV-1; conditions: in vitro
[3] = system: Herpesvirus hominis genital strain MVC 70 (herpesvirus h simplex 0-2); conditions: solution of 0.02% w/v
[4] = system: Herpesvirus hominis oral stain SUE (herpesvirus h simplex-1); conditions: solution of 0.02% w/v

## Nc1nc2c(ncn2COCCO)c(=O)[nH]1 [Acyclovir]
[1]
  viral titers: reduced viral titers
[1]; compared to vehicle control or acyclovir
  lesion development, duration and severity scores: did not reduce lesion development, duration or severity

## NC(CCC(=O)NC(CS)C(=O)NCC(=O)O)C(=O)O (stereo not drawn) [GSH, 2-amino-5-{[2-[(carboxymethyl)amino]-1-(mercaptomethyl)-2-oxoethyl]amino}-5-oxopentanoic acid]
[2]; addition of exogenous GSH
  inhibition of replication of HSV-1: > 99%
[2]; addition of exogenous GSH to infected cells
  intracellular GSH levels after virus challenge: restore its intracellular levels almost up to those found in uninfected cells

## [H]/N=C(\N/C(=N/[H])NCCCCCCNC(=N)NC(=N)Nc1ccc(Cl)cc1)Nc1ccc(Cl)cc1 [chlorhexidine]
[3]
  infectivity of HVH strain MVC 70 (HSV-2): reduced the infectivity
[4]
  infectivity of HVH strain SUE (HSV-1): reduced the infectivity
